Measurements published in patent publication US11779620B2 (priority 2020, dated 2023).

What was measured:
human PBMC cultures [1] = assay: Induction of CD69 activation marker on immune cell subsets in PBMC cultures (Trametes versicolor study); format: cell-based; settings: 24 h, positive controls LPS 10 ng/mL, IL-2 100 IU/mL, mean±SD
human PBMC cultures [2] = assay: Cytokine, chemokine and growth factor levels in PBMC culture supernatants (medicinal mushroom blend study); format: cell-based; settings: LPS-treated control cultures (10 ng/mL), 24 h, mean±SD
Description: The powder was handled in the following manner, using pyrogen-free disposables: A 100 mg/mL suspension was prepared in phosphate-buffered saline (PBS) and allowed to rehydrate and extract aqueous compounds for 1 hour at 20° C. under gentle agitation. The suspension was centrifuged at 400 g for 10 minutes, and the aqueous fraction harvested. Ethanol (95%) was added to the pellet and vortexed, and extraction of non-aqueous, ethanol-soluble compounds allowed for 1 hour at 20° C. under gentle agitation. The suspension was centrifuged at 400 g for 10 minutes, and the ethanol fraction harvested. The remaining solid pellet was resuspended in PBS. The aqueous and ethanol fractions were filtered through a 0.22-micron syringe filter before adding to cell cultures. The solid fraction was passed through homogenization spin columns (QIAshredder, Qiagen, […].), but were not filtered through a 0.22-micron filter. From each fraction, serial dilutions were made in pyrogen-free physiological saline. See also FIG. 9.
Peripheral venous blood was drawn from three healthy human donors upon written informed consent, as approval by the Sky Lakes Medical Center Institutional Review Board, Federalwide Assurance 2603. The blood was drawn into heparin vacutainer vials, and the peripheral blood mononuclear cells (PBMC) isolated using Lympholyte Poly by centrifugation for 35 minutes at 400×g. The PBMC were washed twice in PBS, counted, and the density adjusted to establish cultures with a cell density of 10^6/mL, using Roswell Park Memorial Institute (RPMI) 1640 medium containing penicillin, streptomycin, and fetal bovine serum.
The highly inflammatory lipopolysaccharide (LPS) from Salmonella enterica was used as a positive control for immune-cell activation. Serial dilutions of products or LPS (10 ng/mL) were added to cultures at a volume of 20 μL, and cultures were then incubated at 37° C., 5% CO2 for 24 hours. […] Untreated negative control cultures consisted of PBMC exposed to phosphate-buffered saline in the absence of test products. All treatments, including each dose of test product and each positive and negative control, were tested in triplicate. After 24 hours, cells were transferred to V-bottom microtiter plates, washed in PBS containing bovine serum albumin and sodium azide, and stained for 10 minutes with fluorochrome-labeled anti-CD3, anti-CD56, and anti-CD69 monoclonal antibodies at the recommended concentration. PBMC were then fixed in formalin. The fluorescence intensities for CD3, CD56, and CD69 were measured by flow cytometry, using an Attune acoustic-focusing flow cytometer (Thermo Fisher Scientific, Waltham, Mass., USA). Data analysis utilized gating on forward and side scatter to evaluate CD69 expression on lymphocyte versus monocyte/macrophage subsets. The lymphocyte subpopulation was further analyzed for CD69 expression on CD3−CD56+ NK cells, CD3+CD56+ NKT cells, CD3+CD56− T cells, and non-NK non-T lymphocytes.
After 24 hours of incubation, after transfer to V-bottom microtiter plates and before cells were stained for flow cytometry analysis, the culture supernatants were harvested from the PBMC cultures described above. Levels of cytokines, chemokines, and growth factors were quantified using Bio-Plex protein arrays (Bio-Rad Laboratories Inc., Hercules Calif., USA) and utilizing xMAP technology (Luminex, Austin, Tex., USA).

## lipopolysaccharide [LPS]
Human PBMC cultures [1]
  CD69 percent change compared to untreated control cultures, NK cells: 114±10%
  CD69 percent change compared to untreated control cultures, NKT cells: 54±8.3%
  CD69 percent change compared to untreated control cultures, T lymphocytes: 19±2.1%
Human PBMC cultures [2]
  G-CSF level: 1,458±58 pg/mL
  IFN-γ level: 71 ± 2 pg/mL
  IL-1ra level: 8,134±473 pg/mL
  IL-1β level: 772 ± 28 pg/mL
  IL-10 level: 301 ± 15 pg/mL
  MCP-1 level: 2,052±35 pg/mL
  MIP-1α level: 2,116±0 pg/mL
  MIP-1β level: 6,497±814 pg/mL
  TNF-α level: 7,073±185 pg/mL
  VEGF level: 421 ± 17 pg/mL
  bFGF level: 221 ± 8 pg/mL
